Assay results reported in patent US4657898A, “N^6 -substituted adenosines and method of use” (Warner-Lambert Company, priority 1985, dated 1987).

Tests used:
[1] = Mouse Activity and Screen Test Procedure (MAST): inhibition of locomotion (LI); assay type: in vivo, mouse (Swiss-Webster)
Method: Treatments are administered intraperitoneally one hour prior to testing. […] Compounds are dissolved or suspended in 0.2% Methocel. Control animals are injected with Methocel.
Immediately following the screen test, the final phase of testing is initiated by placing each group of three mice in one actophotometer (Life Sciences, 22, 1067-1076, 1978). The actophotometer consists of a cylindrical chamber whose center is occupied by another cylinder which contains the illumination for six photocells located on the perimeter of the chamber. Six light-beam interruptions equal one count. Locomotor activity is recorded by computer at ten minute intervals for 60 minutes.
The compounds are identified in the Examples.

[2] = Mouse Activity and Screen Test Procedure (MAST): screen test failure (ST); conditions: lowest dose at which an A rating is achieved, screen test; i.p., mouse
Method: Nine unfasted Swiss-Webster male mice weighing 20-30 g are equally divided into three groups for each drug dose to be tested. That is, data for each dose level was generated by three separate groups of three mice each.
A minimum of three dose levels (10, 30, and 100 mg/kg) are tested for each drug. Treatments are administered intraperitoneally one hour prior to testing. All dosages are calculated as parent compound and given in volumes of 10 ml/kg. Compounds are dissolved or suspended in 0.2% Methocel. Control animals are injected with Methocel.
Testing: A two part testing procedure is started one hour postinjection. First, the screen test (ST) is performed (see Pharmac. Biochem. Behav. 6, 351-353, 1977). Briefly this test consists of placing mice on individual wire screens which are then rotated 180 degrees at the start of a 60 second observation period. The number of mice falling off the inverted screen is recorded.
Data: The data obtained from the screen test are expressed as percent of mice falling off the screen. Data derived from locomotor activity of drug treated mice are compared to the activity of vehicle treated animals and are expressed as percent inhibition of spontaneous locomotion. All percentages reported for inhibition of locomotion (LI) are based upon data accumulated for one hour. Both phases of testing are graded: A=60-100%; C=31-59%; and N=0-30%. An overall dose rating is obtained by the following criteria:
LAD refers to the lowest dose at which an A rating is achieved. […] The compounds are identified in the Examples.

[3] = Antihypertensive evaluation (AHP3), aortic blood pressure and heart rate in conscious rats; assay type: in vivo; conditions: conscious rat
Description: […] EVALUATION (AHP3)
This test procedure is described in the following paragraphs.
A Method for the Direct Monitoring of Aortic Blood Pressure and Heart Rate from Conscious Rats
The continuous monitoring of pulsatile blood pressure (BP) from unrestrained conscious rats surgically equipped with polyethylene cannulas was accomplished by means of a computer assisted data capture scheme (CADCS). The basic elements of the methodology are the cannulation procedure and the CADCS.
Cannulation Procedure: Rats were anesthetized with Telazol (1:1 tiletamine HCl and zolazepam HCl); 20-40 mg/kg IM and the descending aorta exposed via a midline incision. Cannulas fabricated from polyethylene tubing were inserted into the aorta via an undersized puncture hole below the renal arteries. The puncture hole was made by a 23G disposable needle with a section of the aorta clamped off above and below the puncture site. The cannulas, consisting of a PE100 (0.86 mm ID) body and a PE50 (0.5mm ID) tip, were attached to a trocar, inserted through the psoas muscle, and passed subcutaneously along the midline of the back and externalized between the ears. The cannulas were anchored to the psoas muscle and between the scalulae (3-0 green braided suture). The midline incision was closed in two steps (muscle first, skin second) using continuous over-and over sutures (4-0 chronic). Each rat was then given penicillin 30,000 units subcutaneously (Penicillin G Procaine Sterile Suspension).
The rats were fitted with a harness-spring-swivel assembly designed to protect the cannula and to provide the rat relative freedom of movement. The harnesses were fabricated from nylon hook and loop tape cemented to a metal plate to which spring wires (18-8 stainless steel), were attached to brass swivels. Each polyethylene cannula was channeled through a spring and connected through a swivel to a pressure transducer (Model P23Gb; Statham Instruments; Hato Rey, Puerto Rico) and an infusion pump (Sage model 234-7; Orion Research, Cambridge, MA) by means of PE100 tubing. While on test, each rat received a continuous slow infusion of heparinized saline solution (approximately […] or 40 units of heparin per 24 hour period) to prevent clot formation. Additional "flushes" of the cannula with heparinized saline were carried out when the aortic pulse pressure (systolic minus diastolic) was less than 25 mm Hg.
CADCS: The pulsatile blood pressure and heart rate of each of 32 rats was monitored every minute by means of two in-laboratory microcomputers communicating directly with a data concentrator computer. The data were first stored on the data concentrator disk and then transferred to a magnetic tape for analysis and report generation by the main research computer. The overall scheme involved modulating the primary signal from the pressure transducer, generating the primary data set of the one-minute values for systolic, diastolic, and mean blood pressures and heart rate by the in-lab microcomputer and the storage, analysis, and report generation by the main reserach computer.
The transducers were connected to analog signal conditioning modules. The modules provided a regulated excitation voltage for the transducers, amplification as required to interface the microprocessors and an active low pass filter to compensate for the pressure wave form distortion produced by the flexible, fluid filled, narrow cannula. The distortion was 22-26 Hz and this provided a reliable estimate of both systolic and diastolic blood pressure.
The microcomputers (one for each of two groups of 16 rats) were connected to the input components through the module interface units, an analog-to-digital converter for the pressure wave form signal and the digital inputs for the dose and event marker switches. The microcomputer controlled the sequential acquisition of data from the modular interface units through an internal synchronous time-of-day clock/time base generator. […]

adenosine A1 receptor = biological target: T1, adenosine A1 receptor (Rattus norvegicus, UniProt P25099); experiment: Adenosine Receptor Binding--A1 Receptor Affinity (RBA1), [3H]-CHA; parameters: species or system rat (male Long Evans)
T1 construct: Whole brain minus cerebellum and brainstem from male Long Evans rats; from tissue; host or cells: rat whole brain minus cerebellum and brainstem, membranes (male Long Evans)
T1 sequence (P25099 1-326): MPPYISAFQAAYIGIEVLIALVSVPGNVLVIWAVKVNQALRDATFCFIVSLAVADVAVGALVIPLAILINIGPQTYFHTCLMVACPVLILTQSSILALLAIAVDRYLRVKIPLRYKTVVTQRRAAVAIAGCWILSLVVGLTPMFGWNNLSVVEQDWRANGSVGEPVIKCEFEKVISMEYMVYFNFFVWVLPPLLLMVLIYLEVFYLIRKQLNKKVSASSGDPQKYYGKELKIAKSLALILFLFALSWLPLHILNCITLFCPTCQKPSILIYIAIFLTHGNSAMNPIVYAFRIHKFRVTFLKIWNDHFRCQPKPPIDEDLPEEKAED
Method: Adenosine Receptor Binding--A1 Receptor Affinity (RBA1)
Whole brain minus cerebellum and brainstem from male Long Evans rats (150-200 g) was homogenized in 30 volumes of ice-cold 0.05M Tris-HCl buffer pH 7.7 using a Brinkman Polytron PT-10, (setting number 6 for 20 seconds) and centrifuged for ten minutes at 20,000 xg (Sorvall RC-2), 4° C. The supernatant was discarded, and the pellet was resuspended and centrifuged as before. The pellet was resuspended in 20 ml Tris-HCl buffer containing two International Units/ml of adenosine deaminase (Sigma type III from calf intestinal mucosa), incubated at 37° C. for 30 minutes, then subsequently at 0° C. for ten minutes. […]
Tissue homogenate (10 mg/ml) was incubated in 0.05M Tris-HCl buffer pH 7.7 containing 1.0 nM [^3 H]-N^6 -cyclohexyladenosine (^3 H]-CHA) with or without test agents in triplicate for one hour at 25° C. […] The radio-labeled ligand retained on the filter was measured by liquid scintillation spectrophotometry after shaking the filters for one hour or longer on a mechanical shaker in 10 ml of Beckman Ready-Solv HP scintillation cocktail.
Nonspecific binding was defined as the binding which occurred in the presence of 1 mM theophylline. […] The Scatchard plot was calculated by linear regression of the line obtained by plotting the amount of radioligand bound [formula] […]

adenosine A2 receptor = biological target: T2, adenosine A2 receptor (Rattus norvegicus, UniProt P30543); experiment: Adenosine Receptor Binding--A2 Receptor Affinity (RBA2), [3H]NECA; parameters: species or system rat (Sprague-Dawley or Long-Evans, striatum)
T2 construct: 5 mg original tissue weight of rat weight of rat striatal membranes; tissue Pel-Freez (Rogers, Ark.); host or cells: rat striatum, membranes (Sprague-Dawley; Long-Evans from Blue Spruce Farms gave essentially identical results)
Method: Adenosine Receptor Binding--A2 Receptor Affinity (RBA2)
Brains from 200-500 g mixed sex Sprague-Dawley rats were purchased from Pel-Freez (Rogers, Ark.). […] Brains were thawed and then kept on ice while the striata were dissected out. Striata were disrupted in 10 vol of ice-cold 50 mM Tris.HCl (pH 7.7 at 25° C., pH 8.26 at 5° C.) (Tris) for 30 seconds in a Polytron PT-10 (Brinkmann) at setting 5. The suspension was centrifuged at 50,000 xg for ten minutes, the supernatant discarded, the pellet resuspended in 10 vol ice-cold Tris as above, recentrifuged, resuspended at 1 g/5 ml, and stored in plastic vials at -70° C. […] When needed, tissue was thawed at room temperature, disrupted in a Polytron, and kept on ice until used. […]
Incubations were terminated by filtration through 2.4 cm GF/B filters under reduced pressure. […] Filters were put in scintillation vials, 8 ml of Formula 947 scintillation fluid added, and the vials left overnight, shaken, and counted in a liquid scintillation counter at 40% efficiency.
The IC50 was calculated by weighted nonlinear least squares curve-fitting to the mass-action equation. […]
Weighting factors were calculated under the assumption that the standard deviation was proportional to the predicted value of Y. Nonspecific binding was treated as a very large (infinite) concentration of drug in the computer analysis.

T2 sequence (P30543 whole entry): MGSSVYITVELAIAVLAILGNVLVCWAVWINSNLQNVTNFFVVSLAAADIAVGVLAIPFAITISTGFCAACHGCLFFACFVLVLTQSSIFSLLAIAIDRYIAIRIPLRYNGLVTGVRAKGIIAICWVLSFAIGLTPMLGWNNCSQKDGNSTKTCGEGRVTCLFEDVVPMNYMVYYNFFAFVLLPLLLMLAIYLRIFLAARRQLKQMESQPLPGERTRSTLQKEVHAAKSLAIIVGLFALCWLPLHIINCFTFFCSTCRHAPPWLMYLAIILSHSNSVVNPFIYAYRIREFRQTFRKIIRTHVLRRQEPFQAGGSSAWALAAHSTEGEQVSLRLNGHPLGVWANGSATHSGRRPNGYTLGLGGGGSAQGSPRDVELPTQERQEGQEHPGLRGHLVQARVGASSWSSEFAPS

SMILES: OC[C@H]1O[C@@H](n2cnc3c(NCC(c4ccccc4)c4ccccc4)ncnc32)[C@H](O)[C@@H]1O [Example 1, N^6-(2,2-Diphenylethyl)adenosine]
- Inhibition of mouse locomotor activity ([1]; 10 mg/kg i.p.): 92%
- Inhibition of mouse locomotor activity ([1]; 30 mg/kg i.p.): 93%
- Inhibition of mouse locomotor activity ([1]; 100 mg/kg i.p.): 94%
- MAST ST LAD [2]: > 100 mg/kg
- HR.uparw. (change in heart rate) ([3]; 1 mg/kg): < 20%
- Mμ.c..dwnarw. (change in MAP) ([3]; 1 mg/kg): 16%
- HR.uparw. (change in heart rate) ([3]; 3 mg/kg): < 20%
- Mμ.c..dwnarw. (change in MAP) ([3]; 3 mg/kg): 20%
- HR.uparw. (change in heart rate) ([3]; 10 mg/kg): < 20%
- Mμ.c..dwnarw. (change in MAP) ([3]; 10 mg/kg): 20%
- HR.uparw. (change in heart rate) ([3]; 30 mg/kg): < 20%
- Mμ.c..dwnarw. (change in MAP) ([3]; 30 mg/kg): 35%

SMILES: O=[N+]([O-])c1ccc(C(CNc2ncnc3c2ncn3[C@@H]2O[C@H](CO)[C@@H](O)[C@H]2O)c2ccc([N+](=O)[O-])cc2)cc1 [Example 20]
- IC50 (adenosine A1 receptor): 229 nM
- IC50 (adenosine A2 receptor): 559 nM
- MAST ST LAD [2]: > 100 mg/kg
